Experimental data from patent US11654196B2, “Dosing regimens for echinocandin class compounds” (priority 2012, dated 2023).
Like-named read-outs stand apart in the source and are kept apart here. *1 amine or outer side, *2 acyl side, *3 side chain or, on linkers, in order; H or OH if unused. Where a SMILES comes first, the peptide text is derived from it. Bridges are numbered along the chain shown (N, C = ends). [ ]: non-standard residue; d: D form. The star is where a group is joined. hTyr(3S-OH,4S-OH,3'-OSO3H) = N[C@H](C(=O)O)[C@H](O)[C@@H](O)c1ccc(O)c(OS(=O)(=O)O)c1; Orn(4R-OH,5R-OH) = O=C([C@H](C[C@@H](O)[C@@H](O)N[*:3])N[*:1])[*:2]; Pro(3S-OH,4S-Me) = C[C@H]1CN[C@H](C(=O)O)[C@H]1O; X1 = CCCCCOc1ccc(-c2cc(-c3ccc(C(=O)*)cc3)no2)cc1; Gln(3R-OH) = NC(=O)C[C@@H](O)[C@H](N)C(=O)O; Hyp = O=C(O)[C@@H]1C[C@@H](O)CN1

What was measured:
[1] = Pharmacokinetics following intravenous administration in beagle dogs; format: in vivo; conditions: 1.4 mg/kg IV slow bolus
Experimental: Echinocandin class compounds were administered to beagle dogs weighing approximately 6-10 kg. Each compound was dosed at 1.4 mg/kg in aqueous saline (with or without 0.5% Tween) over course of 1-10 minutes. […] The dogs were fasted at least 12 hours prior to each dosing and offered food after the 4-hour blood sample was taken; water was withheld for 1 hour prior to and 4 hours following each dosing event. The dose for each animal was based on its most recent body weight. The test article was injected intravenously via a catheter placed in the cephalic vein as a slow bolus.
Blood was collected via the jugular vein. All blood samples (1 mL each) were collected into K3EDTA tubes. Following blood collection, the samples were immediately inverted several times and were held on wet ice pending centrifugation. The samples were centrifuged within 30 minutes of collection under refrigeration (˜5° C. for 10 minutes at 2000 g) to obtain plasma. The plasma was frozen immediately on dry ice after separation. The plasma samples were stored at approximately ˜70° C. until analysis.
Plasma (100 μL) was precipitated with 400 μL of 0.1% formic acid in acetonitrile containing the internal standard (100 ng/mL pneumocandin). The samples were then capped and vortexed for about 30 seconds followed by centrifugation at 14,000 rpm at room temperature for 10 minutes. Following centrifugation 200 μL of supernatant was transferred to plastic autosampler vials containing 200 μL of 0.1% formic acid in water and vortexed. Samples were then analyzed by LCMSMS.
All pharmacokinetic calculations were performed using WinNonlin version 4.1 (Pharsight Corp) by noncompartmental analysis.

[2] = Pharmacokinetics (oral bioavailability) following oral administration in beagle dogs; format: in vivo; set-up: key to Improvement (ratio of % oral bioavailability to saline): NI = no improvement in oral bioavailability in comparison to saline; conditions: for % BA in saline: oral about 7-10 mg/kg, formulation 11 (saline)
Experimental: Echinocandin class compounds were administered to beagle dogs weighing approximately 6-10 kg. Each animal received the appropriate prepared test article in a single oral capsule dose at a target dose level of about 7-10 mg/kg. Immediately after dosing, each animal was offered 20 mL-30 mL of water orally (Groups 1-4) or 30 mL of water orally to assist in swallowing the capsule.
Animals were treated and blood samples were drawn and analyzed as provided in Example 1.
The bioavailability of each oral dose formulation was estimated by comparison to intravenous plasma concentration data in dogs from Example 1. The results provided in Table 3 show the oral bioavailability for the echinocandin class compound in saline (formulation 11), and the improvement over saline with the use of a formulation of the invention.

[3] = Mouse, literature values; cited from earlier work
[4] = Rat, literature values; cited from earlier work
[5] = Rabbit, literature values; cited from earlier work
[6] = Man, literature values; cited from earlier work

SMILES | AUC [1] [ng·h/mL] | Cmax [1] [ng/mL] | Mean clearance [1] [mL/min/kg] | T1/2 [1] [h] | Volume of Distribution [1] [L/kg] | % BA in saline [2] [%] | Improvement (ratio of % oral bioavailability to saline) ([2]; oral, formulation 1) | Improvement (ratio of % oral bioavailability to saline) ([2]; oral, formulation 5) | Improvement (ratio of % oral bioavailability to saline) ([2]; oral, formulation 6) | Improvement (ratio of % oral bioavailability to saline) ([2]; oral, formulation 7) | % BA ([2]; oral, formulation 1) | Improvement (ratio of % oral bioavailability to saline) ([2]; oral, formulation 3) | Half-life [3] [h] | Half-life [4] [h] | Half-life [5] [h] | Half-life [6] [h]
CCCCCOc1ccc(-c2ccc(-c3ccc(C(=O)NC4CC(O)C(OCCOCCOC)NC(=O)C5C(O)C(C)CN5C(=O)C(C(C)O)NC(=O)C(C(O)C(O)c5ccc(O)cc5)NC(=O)C5CC(O)CN5C(=O)C(C(C)O)NC4=O)cc3)cc2)cc1 (centres unmarked) [Compound 19] | 96100 | 7700 | 0.202 | 18.9 | 0.331 | 5.74 | NI | NI |  |  |  |  |  |  |  | 
CCCCCOc1ccc(-c2ccc(-c3ccc(C(=O)NC4CC(O)C(OCCOCCN)NC(=O)C5C(O)C(C)CN5C(=O)C(C(C)O)NC(=O)C(C(O)C(O)c5ccc(O)cc5)NC(=O)C5CC(O)CN5C(=O)C(C(C)O)NC4=O)cc3)cc2)cc1 (centres unmarked) [Compound 26] | 67167 | 4080 | 0.219 | 33.7 | 0.627 |  |  | NI | NI | NI |  |  |  |  |  | 
CCCCCOc1ccc(-c2ccc(-c3ccc(C(=O)NC4CC(O)C(OCCOCCO)NC(=O)C5C(O)C(C)CN5C(=O)C(C(C)O)NC(=O)C(C(O)C(O)c5ccc(O)cc5)NC(=O)C5CC(O)CN5C(=O)C(C(C)O)NC4=O)cc3)cc2)cc1 (centres unmarked) [Compound 21] | 113000 | 6740 | 0.145 | 28.9 | 0.361 | 4.70 | 1.3 | NI |  | NI | (6.42%) |  |  |  |  | 
CCCCCOc1ccc(-c2cc(-c3ccc(C(=O)N[C@H]4C[C@@H](O)[C@@H](O)NC(=O)[C@@H]5[C@@H](O)[C@@H](C)CN5C(=O)[C@H]([C@H](O)CC(N)=O)NC(=O)[C@H]([C@H](O)[C@@H](O)c5ccc(O)c(OS(=O)(=O)O)c5)NC(=O)[C@@H]5C[C@@H](O)CN5C(=O)[C@H]([C@@H](C)O)NC4=O)cc3)no2)cc1 [Micafungin, micafungin] (X1-[Orn(4R-OH,5R-OH)]T[Hyp][hTyr(3S-OH,4S-OH,3'-OSO3H)][Gln(3R-OH)][Pro(3S-OH,4S-Me)]; lactam 1-C) |  |  |  |  |  |  |  |  |  |  |  |  | 7 to 13 | 5 | 3 | 10 to 17

The next lines start with results.

AUC [1] [ng·h/mL] | Cmax [1] [ng/mL] | Mean clearance [1] [mL/min/kg] | T1/2 [1] [h] | Volume of Distribution [1] [L/kg] | % BA in saline [2] [%] | Improvement (ratio of % oral bioavailability to saline) ([2]; oral, formulation 1) | Improvement (ratio of % oral bioavailability to saline) ([2]; oral, formulation 5) | Improvement (ratio of % oral bioavailability to saline) ([2]; oral, formulation 6) | Improvement (ratio of % oral bioavailability to saline) ([2]; oral, formulation 7) | % BA ([2]; oral, formulation 1) | Improvement (ratio of % oral bioavailability to saline) ([2]; oral, formulation 3) | SMILES | Half-life [3] [h] | Half-life [4] [h] | Half-life [5] [h] | Half-life [6] [h]
50800 | 3630 | 0.377 | 21.0 | 0.687 | 5.15 | NI | NI |  |  |  |  | CCCCCOc1ccc(-c2ccc(-c3ccc(C(=O)NC4CC(O)C(NCCNCCO)NC(=O)C5C(O)C(C)CN5C(=O)C(C(C)O)NC(=O)C(C(O)C(O)c5ccc(O)cc5)NC(=O)C5CC(O)CN5C(=O)C(C(C)O)NC4=O)cc3)cc2)cc1 (centres unmarked) [Compound 39] |  |  |  | 
46200 | 2660 | 0.365 | 27.6 | 0.874 |  | NI | NI |  | NI |  | NI | CCCCCOc1ccc(-c2ccc(-c3ccc(C(=O)NC4CC(O)C(NCC[N+](C)(C)C)NC(=O)C5C(O)C(C)CN5C(=O)C(C(C)O)NC(=O)C(C(O)C(O)c5ccc(O)cc5)NC(=O)C5CC(O)CN5C(=O)C(C(C)O)NC4=O)cc3)cc2)cc1 (centres unmarked) [Compound 37] |  |  |  | 
